{
  "source": "paper PMC10439310",
  "about": "(Nature microbiology, 2022)",
  "system": "inosine-5’-monophosphate dehydrogenase (IMPDH, gene: guaB)",
  "type": "binding, Bacillus anthracis",
  "conditions": "[32P]-Ap4A, lysates of E. coli overexpressing B. anthracis ORFs",
  "data": [
    {"smiles": "Nc1ncnc2c1ncn2[C@@H]1O[C@H](COP(=O)(O)OP(=O)(O)OP(=O)(O)OP(=O)(O)OC[C@H]2O[C@@H](n3cnc4c(N)ncnc43)[C@H](O)[C@@H]2O)[C@@H](O)[C@H]1O", "note": "[Ap4A, diadenosine 5’,5’’’-P1,P4-tetraphosphate]", "values": [
      {"measurement": "binding in DRaCALA screen (in words)", "value": "putative Ap4A-binding partner"}
    ]}
  ]
}
